US20250074970A1, “METHOD OF PURIFYING IMMUNOGLOBULIN G AND USES THEREOF” (CSL Behring AG, priority 2021, published 2025)

System: Vesicular stomatitis virus (VSV)
Assay type: cell-based
Conditions: 30 mM final concentration of OG at 5° C., VSV spiked CRP

## CCCCCCCCO[C@@H]1O[C@H](CO)[C@@H](O)[C@H](O)[C@H]1O [OG, N-Octyl-β-D-Glucopyranoside]
  log 10 reduction factor (LRF): ≥ 5.3
